Laboratory results taken from US20250221966A1, “RXFP1 AGONISTS” (BRISTOL-MYERS SQUIBB COMPANY, priority 2021, published 2025).
pEC50: −log10 of the molar value. Where two headings read alike, the source gives them in different places.

Molecular target: T1, human RXFP1 (Homo sapiens, UniProt Q9HBX9)
T1 construct: expressed in transfected cells
T1 sequence (Q9HBX9 1-757): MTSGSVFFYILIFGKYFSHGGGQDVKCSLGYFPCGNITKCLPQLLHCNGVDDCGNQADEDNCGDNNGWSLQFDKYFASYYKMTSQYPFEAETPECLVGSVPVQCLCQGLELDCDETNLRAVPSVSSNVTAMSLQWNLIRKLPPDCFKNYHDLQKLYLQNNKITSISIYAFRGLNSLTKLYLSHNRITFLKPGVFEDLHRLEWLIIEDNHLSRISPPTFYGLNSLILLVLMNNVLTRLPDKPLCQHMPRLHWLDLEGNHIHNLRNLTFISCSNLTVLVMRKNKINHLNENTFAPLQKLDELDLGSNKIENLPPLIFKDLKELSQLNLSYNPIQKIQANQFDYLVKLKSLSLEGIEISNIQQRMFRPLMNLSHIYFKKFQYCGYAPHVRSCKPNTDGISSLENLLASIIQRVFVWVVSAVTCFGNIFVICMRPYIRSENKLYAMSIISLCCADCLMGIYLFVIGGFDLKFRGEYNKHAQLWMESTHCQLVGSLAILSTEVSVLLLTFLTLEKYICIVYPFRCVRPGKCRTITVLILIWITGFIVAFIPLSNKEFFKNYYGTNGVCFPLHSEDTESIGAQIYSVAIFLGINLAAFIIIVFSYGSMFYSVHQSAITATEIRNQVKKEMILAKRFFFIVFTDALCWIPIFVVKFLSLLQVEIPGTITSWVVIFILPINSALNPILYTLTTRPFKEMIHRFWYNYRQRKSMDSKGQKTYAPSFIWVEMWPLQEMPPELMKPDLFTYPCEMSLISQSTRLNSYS
Experiment: RXFP1 cAMP assay (hRXFP1 HEK293 cAMP assay, HTRF)
Assay type: cell-based
How it was run: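 Intracellular cAMP was read by HTRF, with potency fitted to a 4-parameter logistic curve. Compound exposure (0.010 nM–50 μM final, 2% DMSO) lasted 30 min at room temperature. Cells were hRXFP1-HEK293 at 1500 per well in IBMX-containing (0.5 mM) HEPES-buffered HBSS.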

[1] = HEK293 cells stably expressing human RXFP1, 30 min at room temperature, read-out: cAMP hRXFP1 HEK293 Assay EC50

SMILES	pEC50 [1]	pEC50 (cAMP hRXFP1 HEK293 Assay EC50, HEK293 cells stably expressing human RXFP1, 30 min at room temperature)
CNC(=O)c1ccc(F)c(-c2ccc(OC)c(C(=O)N[C@@H]3C4CCC(/C4=C/c4cnoc4)[C@@H]3C(=O)Nc3ccc(F)c(C(F)(F)F)c3)c2)c1 (some centres unmarked) [compound 165]	7.40	
COc1ccc(-c2ccc(C(CC(=O)O)C(F)(F)F)cc2F)cc1C(=O)N[C@H]1[C@@H](C(=O)Nc2ccc(F)c(C(F)(F)F)c2)[C@H]2CC[C@@H]1/C2=C\C1CCCC1 (some centres unmarked) [compound 892]	8.00	
COc1ccc(C2=NOC3CC(C(C)(C)O)CC23)cc1C(=O)N[C@H]1[C@@H](C(=O)Nc2ccc(F)c(C(F)(F)F)c2)[C@H]2CC[C@@H]1/C2=C\C1CC1 (single isomer, unassigned) [compound 599]	6.98	
COCCN1CCCC1c1ccc(OC)c(C(=O)N[C@@H]2C3CCC(C3=CC3CC3)[C@@H]2C(=O)Nc2ccc(F)c(C(F)(F)F)c2)c1 (some centres unmarked) [compound 666]	6.43	
COc1ccc(C2=NOC3(CO)CCCC23)cc1C(=O)N[C@H]1[C@@H](C(=O)Nc2ccc(F)c(C(F)(F)F)c2)[C@H]2CC[C@@H]1/C2=C\C1CC1 (single isomer, unassigned) [compound 548]	7.49	
COc1ccc(-c2cnc3nn(CC(=O)O)cc3c2)cc1C(=O)N[C@@H]1C2CCC(/C2=C/C(F)(F)F)[C@@H]1C(=O)Nc1ccc(F)c(C(F)(F)F)c1 (some centres unmarked) [compound 318]	7.96	
COc1ccc(-c2cc(S(C)(=O)=O)ccc2F)cc1C(=O)N[C@H]1[C@@H](C(=O)Nc2ccc(F)c(C(F)(F)F)c2)[C@H]2CC[C@@H]1/C2=C\C1CCCC1 [compound 907]	10.00	
COc1ccc(C2=NOC3COCC23)cc1C(=O)N[C@@H]1C2CCC(/C2=C/C2CC2)[C@@H]1C(=O)Nc1ccc(F)c(C(F)(F)F)c1 (some centres unmarked) [compound 418]	6.77	
COc1ccc(-c2cc(C(=O)O)ccc2F)cc1C(=O)N[C@@H]1C2CCC(/C2=C/C2CC2)[C@@H]1C(=O)NC1CCc2ccccc2C1 (some centres unmarked) [compound 299]	6.64	
O=C(O)c1ccc(F)c(-c2ccc(OCCN3CCOCC3)c(C(=O)N[C@H]3[C@@H](C(=O)Nc4ccc(F)c(C(F)(F)F)c4)[C@H]4CC[C@@H]3/C4=C\C(F)(F)F)c2)c1 [Example 320, 6-fluoro-3′-(((1R,2R,3S,4R,Z)-3-((4-fluoro-3-(trifluoromethyl)phenyl)carbamoyl)-7-(2,2,2-trifluoroethylidene)bicyclo[2.2.1]heptan-2-yl)carbamoyl)-4′-(2-morpholinoethoxy)-[1,1′-biphenyl]-3-carboxylic acid]	5.71	
COc1ccc(-c2cc(C(OC(=O)NC3CC3)C(F)(F)F)ccc2F)cc1C(=O)N[C@@H]1C2CCC(/C2=C/C2CC2)[C@@H]1C(=O)Nc1ccc(F)c(C(F)(F)F)c1 (some centres unmarked) [compound 208]	9.00	
COc1cc(F)c(F)cc1C(=O)N[C@@H]1C2CCC(/C2=C2\C=Cc3ccccc32)[C@@H]1C(=O)Nc1ccc(F)c(C(F)(F)F)c1 (some centres unmarked) [Example 33]		6.51
COc1ccc(N2CCCC(C(=O)O)C2)cc1C(=O)N[C@@H]1C2CCC(/C2=C/c2ccccc2)[C@@H]1C(=O)Nc1ccc(F)c(C(F)(F)F)c1 (some centres unmarked) [Example 136]	6.57	
COc1cc(F)c(F)cc1C(=O)N[C@@H]1C2CCC(/C2=C/C2=CCOCC2)[C@@H]1C(=O)Nc1ccc(F)c(C(F)(F)F)c1 (some centres unmarked) [compound 42]	6.89	
COc1ccc(C2=NOC3CC(CO)CC23)cc1C(=O)N[C@@H]1C2CCC(/C2=C/C2CC2)[C@@H]1C(=O)Nc1ccc(F)c(C(F)(F)F)c1 (single isomer, unassigned) [compound 433]	8.70	
COc1ccc(-c2cccc(C(=O)O)c2OC)cc1C(=O)N[C@H]1[C@@H](C(=O)Nc2ccc(F)c(C(F)(F)F)c2)[C@H]2CC[C@@H]1C2=C(C)C [compound 101]	6.24	
COc1ccc(C2=NOC3COCC23)cc1C(=O)N[C@H]1[C@@H](C(=O)NC(C)(C)C(C)(C)C)[C@H]2CC[C@@H]1/C2=C\C1CC1 (some centres unmarked) [compound 508]	7.89	
COc1ccc(C2=NOC(CCO)C2)cc1C(=O)N[C@@H]1C2CCC(/C2=C/C2CCC2)[C@@H]1C(=O)Nc1ccc(F)c(C(F)(F)F)c1 (some centres unmarked) [compound 400]	7.51	

SMILES	pEC50 [1]	pEC50 (cAMP hRXFP1 HEK293 Assay EC50, HEK293 cells stably expressing human RXFP1, 30 min at room temperature)
COC(=O)C(NC(C)=O)c1ccc(F)c(-c2ccc(OC)c(C(=O)N[C@@H]3C4CCC(/C4=C/C4CC4)[C@@H]3C(=O)Nc3ccc(F)c(C(F)(F)F)c3)c2)c1 (some centres unmarked) [Example 171]	8.30	
COc1ccc(C2=NOC(CC(=O)O)C2)cc1C(=O)N[C@@H]1C2CCC(/C2=C/C2CCC2)[C@@H]1C(=O)Nc1ccc(F)c(C(F)(F)F)c1 (some centres unmarked) [compound 393]	7.14	
COc1ccc(-c2cccn3c(C(=O)OCc4ccccc4)cnc23)cc1C(=O)N[C@@H]1C2CCC(/C2=C/C(F)(F)F)[C@@H]1C(=O)Nc1ccc(F)c(C(F)(F)F)c1 (some centres unmarked) [compound 315]	7.22	
COc1cc(F)c(F)cc1C(=O)N[C@@H]1C2CCC(/C2=C/c2ccccc2Cl)[C@@H]1C(=O)Nc1ccc(F)c(C(F)(F)F)c1 (some centres unmarked) [compound 14]	6.66	
COc1cc(F)c(F)cc1C(=O)N[C@@H]1C2CCC(/C2=C/c2cccc(F)c2)[C@@H]1C(=O)Nc1ccc(F)c(C(F)(F)F)c1 (some centres unmarked) [compound 30]	7.26	
COc1ccc(-c2cc(C(=O)O)ccc2F)cc1C(=O)N[C@@H]1C2CCC(/C2=C/C2CC2)[C@@H]1C(=O)NC1CCCCC1 (some centres unmarked) [compound 203]	6.49	
COc1ccc(-c2cc(C(=O)O)ccc2F)cc1C(=O)N[C@@H]1C2CCC(/C2=C/C2CC2)[C@@H]1C(=O)NC1CC(F)(F)C1 (some centres unmarked) [compound 304]	5.77	
COCc1ccccc1CNC(=O)[C@@H]1[C@H](NC(=O)c2cc(C3=NOC4COCC34)ccc2OC)[C@@H]2CC[C@H]1/C2=C/C1CC1 (some centres unmarked) [compound 641]	6.66	
COc1ccc(C2=NOC(CO)C2CO)cc1C(=O)N[C@H]1[C@@H](C(=O)Nc2ccc(F)c(C(F)(F)F)c2)[C@H]2CC[C@@H]1/C2=C\C1CC1 (single isomer, unassigned) [compound 657]	6.51	
COc1ccc(-c2ccc(C(=O)O)cc2)cc1C(=O)N[C@H]1[C@@H](C(=O)Nc2ccc(F)c(C(F)(F)F)c2)[C@H]2CC[C@@H]1/C2=C/c1ccccc1 [compound 94]	6.40	
COc1ccc(C2=NOC3CC(C(N)=O)CC23)cc1C(=O)N[C@H]1[C@@H](C(=O)Nc2ccc(F)c(C(F)(F)F)c2)[C@H]2CC[C@@H]1/C2=C\C1CC1 (single isomer, unassigned) [compound 459]	8.60	
COc1ccc(C2=NOC3CC(C(N)=O)CC23)cc1C(=O)N[C@H]1[C@@H](C(=O)Nc2ccc(F)c(C(F)(F)F)c2)[C@H]2CC[C@@H]1/C2=C\C(F)(F)F (single isomer, unassigned) [compound 482]	8.17	
COc1ccc(C2=NOC3CC(C(O)C(F)(F)F)CC23)cc1C(=O)N[C@H]1[C@@H](C(=O)Nc2ccc(F)c(C(F)(F)F)c2)[C@H]2CC[C@@H]1/C2=C\C1CC1 (some centres unmarked) [compound 848]	8.60	
COc1ccc(-c2cc([C@H](OC(=O)NC3CCC3)C(F)(F)F)ccc2F)cc1C(=O)N[C@@H]1C2CCC(/C2=C/C2CCCC2)[C@@H]1C(=O)Nc1ccc(F)c(C(F)(F)F)c1 (some centres unmarked) [compound 922]	8.66	
COc1ccc(-c2ccc(CC(=O)O)cc2)cc1C(=O)N[C@@H]1C2CCC(/C2=C/c2cnoc2)[C@@H]1C(=O)Nc1ccc(F)c(C(F)(F)F)c1 (some centres unmarked) [compound 188]	7.70	
COc1ccc(-c2ccc(N3CCOCC3)nc2)cc1C(=O)N[C@@H]1C2CCC(/C2=C/C2CC2)[C@@H]1C(=O)Nc1ccc(F)c(C(F)(F)F)c1 (some centres unmarked) [compound 250]	7.92	
COc1ccc(C2=NOC3COCC23)cc1C(=O)N[C@H]1[C@@H](C(=O)NCC2CCCC2)[C@H]2CC[C@@H]1/C2=C\C1CC1 (some centres unmarked) [compound 592]	7.06	
